The test system of assay [1] is human monocytic cell line U937. In words: Human U937 cellular necroptosis assay (TNFalpha + z-VAD-FMK, Cell Titer-Glo viability). It counts as cell-based. The settings on record: Homo sapiens, U-937, 22 h, U937 cells, 25 ng/mL human TNFalpha + 25 μM z-VAD-FMK, read-out: hU937 Avg IC50. The essentials: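 Readout is CellTiter-Glo 2.0 luminescence after 22 h at 37° C with compound, in cells triggered by human TNFalpha (25 ng/mL) and z-VAD-FMK (25 μM) in phenol red-free RPMI/10% FBS. Values are run-averaged IC50s from a four-parameter logistic curve.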

For another assay, the target named is RIPK1 (Homo sapiens (Human), UniProt Q13546). In words: ADP-Glo kinase assay (RIPK1 activity, conversion of ATP to ADP). The settings on record: 5 nM RIPK1, 50 μM ATP, 6 h reaction; read-out: RIPK1 Enzyme Avg IC50. The class given is biochemical. The essentials: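 RIPK1 (5 nM final) was preincubated 10 min at rt with 1:3-diluted compounds in HEPES pH 7.5/MgCl2/DTT/BSA/CHAPS buffer. ATP (50 μM final) was then added for 6 h, and ADP formed was read by ADP-Glo luminescence. IC50 values came from four-parameter logistic fitting.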
RIPK1, sequence (Q13546 1-327): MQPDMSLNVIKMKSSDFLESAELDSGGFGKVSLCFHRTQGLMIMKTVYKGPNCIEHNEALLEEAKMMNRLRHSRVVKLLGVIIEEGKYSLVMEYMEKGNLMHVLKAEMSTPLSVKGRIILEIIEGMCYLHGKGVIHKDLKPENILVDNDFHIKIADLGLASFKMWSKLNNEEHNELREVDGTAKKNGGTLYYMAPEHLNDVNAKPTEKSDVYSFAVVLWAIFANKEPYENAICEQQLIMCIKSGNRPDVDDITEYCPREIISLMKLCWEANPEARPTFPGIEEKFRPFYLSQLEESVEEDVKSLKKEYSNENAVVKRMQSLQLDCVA

As usually defined, the IC50 is the concentration needed to halve the response being measured. Take `Cc1cncc(C2CC=NN2C(=O)C23CC(Cn4ncc5cc(C#N)ccc54)(C2)C3)n1` (stereo not drawn) [Example 50, 1-((3-(5-(6-methylpyrazin-2-yl)-4,5-dihydro-1H-pyrazole-1-carbonyl)bicyclo[1.1.1]pentan-1-yl)methyl)-1H-indazole-5-carbonitrile]: the IC50 in assay [1] amounted to 36 nM; at RIPK1 it was 16 nM.
As to `N#Cc1cccc2nn(CC34CC(C(=O)N5N=CCC5c5cc(F)cc(F)c5)(C3)C4)cc12` (stereo not drawn) [Example 60, 2-((3-(5-(3,5-difluorophenyl)-4,5-dihydro-1H-pyrazole-1-carbonyl)bicyclo[1.1.1]-pentan-1-yl)methyl)-2H-indazole-4-carbonitrile], the IC50 in assay [1] was 178 nM; on RIPK1, 44 nM.
The matching figures for `O=C(N1N=CCC1c1cc(F)cc(F)c1)C12CC(Cn3cc4ncccc4n3)(C1)C2` (stereo not drawn) [Example 59, (3-((2H-pyrazolo[4,3-b]-pyridin-2-yl)methyl)bicyclo-[1.1.1]pentan-1-yl)(5-(3,5-difluorophenyl)-4,5-dihydro-1H-pyrazol-1-yl)methanone]: 226 nM and 43 nM.

Source of the values: patent US20250214942A1, “INHIBITORS OF RECEPTOR INTERACTING PROTEIN KINASE I FOR THE TREATMENT OF DISEASE” (Board of Regents, The University of Texas System, priority 2019, published 2025).
